Measurements taken from patent US11584747B2, “Substituted pyridopyrimidinonyl compounds useful as T cell activators” (BRISTOL-MYERS SQUIBB COMPANY, priority 2019, dated 2023).
Read-outs that look alike come from different tables or passages of the source.

What was measured:
human DGKζ = human DGKζ (Homo sapiens (Human), UniProt Q13574); experiment: DGKζ LIPGLO assay (extruded liposome substrate, ADP-Glo luminescence); type: biochemical
human DGKα = human DGKα (Homo sapiens (Human), UniProt P23743); experiment: DGKα ADPGLO assay (detergent/lipid micelle substrate); type: biochemical
Experimental: DGK Alpha ADPGLO (Truncated) IC50 (uM)
The detergent/lipid micelle was prepared by combining 15 g phosphatidylserine (Avanti 840035P) and 1 g diacylglycerol (8008110) and dissolving into 150 mL chloroform in a 2 L round bottom flask. Chloroform was removed under high vacuum by rotary evaporation. […] The lipid/detergent solution was split into 5 mL aliquots and stored at −80° C.

[1] = system: human venous whole blood (IFN-γ); experiment: Human whole blood IFN-γ assay; type: cell-based
Experimental: Human venous whole blood (22.5 μL per well), obtained from healthy donors, was pre-treated with compounds for one hour at 37° C. in a humidified 95% air/5% CO2 incubator. The blood was stimulated with 2.5 μL anti-human CD3 and anti-CD28 mAb at a final concentration of 1 μg/mL each for 24 hours at 37° C. IFN-γ in the supernatants was measured using AlphLISA kit (Cat #AL217).

[2] = liposome (LIPGLO) assay, read-out: DGK zeta (liposome assay) IC50
[3] = ADPGLO assay, read-out: DGK alpha ADPGLO IC50
[4] = liposome assay, read-out: DGK zeta LIPGLO IC50
[5] = truncated DGK alpha, read-out: DGK alpha ADPGLO (Truncated) IC50
[6] = whole blood, normalized to 3 μM reference compound as 100% activation, read-out: IFN-γ Whole Blood Normalized EC50
[7] = Homo sapiens, whole blood, normalized to 3 μM reference compound as 100% activation, read-out: IFN-γ Whole Blood Normalized EC50
[8] = human whole blood, anti-CD3 plus anti-CD28 stimulation, 24 hours, read-out: IFN-γ Whole Blood EC50

human DGKα, sequence (P23743 whole entry, looked up, the tested form may be a part): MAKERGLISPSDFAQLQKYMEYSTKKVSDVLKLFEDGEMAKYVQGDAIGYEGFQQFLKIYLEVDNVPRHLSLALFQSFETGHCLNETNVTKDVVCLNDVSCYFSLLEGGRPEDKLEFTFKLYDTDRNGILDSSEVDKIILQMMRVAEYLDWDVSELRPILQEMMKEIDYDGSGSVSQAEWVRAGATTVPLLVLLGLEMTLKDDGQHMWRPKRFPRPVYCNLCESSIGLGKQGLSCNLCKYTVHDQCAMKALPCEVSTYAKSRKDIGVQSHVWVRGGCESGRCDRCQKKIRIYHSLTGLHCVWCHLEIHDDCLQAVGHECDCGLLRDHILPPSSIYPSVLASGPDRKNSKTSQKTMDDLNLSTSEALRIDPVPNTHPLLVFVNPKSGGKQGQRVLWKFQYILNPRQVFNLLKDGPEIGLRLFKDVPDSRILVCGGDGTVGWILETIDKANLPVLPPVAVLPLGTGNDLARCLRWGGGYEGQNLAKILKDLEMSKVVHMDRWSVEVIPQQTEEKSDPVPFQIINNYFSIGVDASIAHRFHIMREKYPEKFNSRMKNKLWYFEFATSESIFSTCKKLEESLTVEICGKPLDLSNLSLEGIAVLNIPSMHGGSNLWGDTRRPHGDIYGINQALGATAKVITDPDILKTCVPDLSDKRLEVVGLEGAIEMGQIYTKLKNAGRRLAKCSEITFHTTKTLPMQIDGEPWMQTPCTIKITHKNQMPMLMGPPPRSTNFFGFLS
human DGKζ, sequence (Q13574 other isoform, or with tags, fused parts or gaps): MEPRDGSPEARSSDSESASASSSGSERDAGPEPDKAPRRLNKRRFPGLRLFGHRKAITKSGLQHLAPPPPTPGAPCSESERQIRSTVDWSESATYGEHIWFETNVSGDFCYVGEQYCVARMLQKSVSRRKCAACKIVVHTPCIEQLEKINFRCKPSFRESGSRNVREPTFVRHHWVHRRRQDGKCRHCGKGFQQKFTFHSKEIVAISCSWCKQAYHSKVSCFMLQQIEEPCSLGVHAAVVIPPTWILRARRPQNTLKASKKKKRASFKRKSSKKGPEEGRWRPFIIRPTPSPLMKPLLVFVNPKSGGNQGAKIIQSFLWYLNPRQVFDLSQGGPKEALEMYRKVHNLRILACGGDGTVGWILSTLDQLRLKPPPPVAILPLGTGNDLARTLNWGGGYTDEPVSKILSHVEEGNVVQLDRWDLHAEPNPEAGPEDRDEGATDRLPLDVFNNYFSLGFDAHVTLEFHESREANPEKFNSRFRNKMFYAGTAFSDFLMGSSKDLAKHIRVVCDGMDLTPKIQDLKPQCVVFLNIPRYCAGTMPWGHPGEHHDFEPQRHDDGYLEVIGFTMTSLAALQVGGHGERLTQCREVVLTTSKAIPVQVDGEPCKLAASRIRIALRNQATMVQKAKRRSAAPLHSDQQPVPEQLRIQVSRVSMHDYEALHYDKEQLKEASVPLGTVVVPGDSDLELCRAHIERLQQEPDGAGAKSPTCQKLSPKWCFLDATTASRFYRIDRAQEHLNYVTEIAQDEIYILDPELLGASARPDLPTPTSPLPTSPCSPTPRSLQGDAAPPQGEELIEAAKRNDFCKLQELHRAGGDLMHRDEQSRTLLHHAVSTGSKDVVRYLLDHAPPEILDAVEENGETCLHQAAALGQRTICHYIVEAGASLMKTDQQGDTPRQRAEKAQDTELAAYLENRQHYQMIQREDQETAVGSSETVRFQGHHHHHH

IC50 (human DGKζ; [2]) [nM]	IC50 (human DGKα; [3]) [nM]	EC50 ([1]; Homo sapiens, 24 h, human whole blood, anti-CD3 plus anti-CD28 stimulation, 24 hours, read-out: IFN-γ Whole Blood EC50) [nM]	IC50 (human DGKζ; [4]) [nM]	IC50 (human DGKα; [5]) [nM]	EC50 [1, 8] [nM]	SMILES	EC50 [1, 6] [nM]	EC50 [1, 7] [nM]
125000	125000	20000	–	–	–	CC[C@H]1CN(C(C)c2ccc(C(F)(F)F)cc2)[C@H](CC)CN1c1nc(=O)n(C)c2ccc(OCCOC)nc12 (stereo partly drawn) [Example 433, 4-((2S,5R)-2,5-diethyl-4-(1-(4-(trifluoromethyl)phenyl)ethyl)piperazin-1-yl)-6-(2-methoxyethoxy)-1-methylpyrido[3,2-d]pyrimidin-2(1H)-one]	–	–
–	–	–	4130	460	–	CCC(c1ccc(C(F)(F)F)nc1)N1C[C@H](CC)N(c2nc(=O)n(C)c3ccc(C#N)nc23)C[C@H]1CC (stereo partly drawn) [Example 225, 4-((2S,5R)-2,5-diethyl-4-(1-(6-(trifluoromethyl)pyridin-3-yl)propyl)piperazin-1-yl)-1-methyl-2-oxo-1,2-dihydropyrido[3,2-d]pyrimidine-6-carbonitrile]	610	–
–	–	–	970	46	–	CC[C@H]1CN(C(c2ccc(F)cc2)c2csc(C(F)(F)F)n2)[C@H](CC)CN1c1nc(=O)n(C)c2ccc(C#N)nc12 (stereo partly drawn) [Example 210, 4-((2S,5R)-2,5-diethyl-4((4-fluorophenyl)(2-(trifluoromethyl)thiazol-4-yl)methyl)piperazin-1-yl)-1-methyl-2-oxo-1,2-dihydropyrido[3,2-d]pyrimidine-6-carbonitrile]	–	31
–	–	–	28	83	–	CC[C@H]1CN(C(C)c2ccc(C(=O)OC)cc2)[C@H](CC)CN1c1nc(=O)n(C)c2ccc(C#N)nc12 (stereo partly drawn) [Example 266, methyl 4-(1-((2R,5S)-4-(6-cyano-1-methyl-2-oxo-1,2-dihydropyrido[3,2-d]pyrimidin-4-yl)-2,5-diethylpiperazin-1-yl)ethyl)benzoate]	180	–
–	–	–	970	620	–	CC[C@H]1CN(C(C)c2cnc(N3CCOCC3)nc2)[C@H](CC)CN1c1nc(=O)n(C)c2ccc(C#N)nc12 (stereo partly drawn) [Example 207, 4-((2S,5R)-2,5-diethyl-4-(1-(2-morpholinopyrimidin-5-yl)ethyl)piperazin-1-yl)-1-methyl-2-oxo-1,2-dihydropyrido[3,2-d] pyrimidine-6-carbonitrile]	1060	–
22	5	–	–	–	260	CC[C@H]1CN(C(C)c2nc(C3CC3)no2)[C@H](CC)CN1c1nc(=O)n(C)c2ccc(C#N)nc12 (stereo partly drawn) [Example 361, 4-((2S,5R)-4-(1-(3-cyclopropyl-1,2,4-oxadiazol-5-yl)ethyl)-2,5-diethylpiperazin-1-yl)-1-methyl-2-oxo-1,2-dihydropyrido[3,2-d]pyrimidine-6-carbonitrile]	–	–
–	–	–	140	81	–	CCC(c1ccc(C(F)(F)F)nc1)N1C[C@H](CC)N(c2nc(=O)n(C)c3ccc(C#N)nc23)C[C@H]1CC (stereo partly drawn) [Example 224, 4-((2S,5R)-2,5-diethyl-4-(1-(6-(trifluoromethyl)pyridin-3-yl)propyl)piperazin-1-yl)-1-methyl-2-oxo-1,2-dihydropyrido[3,2-d]pyrimidine-6-carbonitrile]	120	–
–	–	–	52	61	–	CC[C@H]1CN(C(C)c2ccc(C3CC3)nc2)[C@H](CC)CN1c1nc(=O)n(C)c2ccc(C#N)nc12 (stereo partly drawn) [Example 192, 4-((2 S,5R)-4-(1-(6-cyclopropylpyridin-3-yl)ethyl)-2,5-diethylpiperazin-1-yl)-1-methyl-2-oxo-1,2-dihydropyrido[3,2-d]pyrimidine-6-carbonitrile]	110	–
–	–	–	88	87	–	CCC(c1ccc(OCC2CC2)cc1)N1C[C@H](CC)N(c2nc(=O)n(C)c3ccc(C#N)nc23)C[C@H]1CC (stereo partly drawn) [Example 216, 4-((2S,5R)-4-(1-(4-(cyclopropylmethoxy)phenyl)propyl)-2,5-diethylpiperazin-1-yl)-1-methyl-2-oxo-1,2-dihydropyrido[3,2-d]pyrimidine-6-carbonitrile]	12	–
–	–	–	12700	10	–	CC[C@H]1CN(C(C)c2ccc(CO)cc2)[C@H](CC)CN1c1nc(=O)n(C)c2ccc(C#N)nc12 (stereo partly drawn) [Example 271, 4-((2S,5R)-2,5-Diethyl-4-(1-(4-(hydroxymethyl)phenyl)ethyl)piperazin-1-yl)-1-methyl-2-oxo-1,2-dihydropyrido[3,2-d]pyrimidine-6-carbonitrile]	14400	–
–	–	–	46	110	–	CCC(c1ccc(C#N)cc1)N1C[C@H](CC)N(c2nc(=O)n(C)c3ccc(C#N)nc23)C[C@H]1CC (stereo partly drawn) [Example 220, 4-((2S,5R)-4-(1-(4-cyanophenyl)propyl)-2,5-diethylpiperazin-1-yl)-1-methyl-2-oxo-1,2-dihydropyrido[3,2-d] pyrimidine-6-carbonitrile]	81	–
–	–	–	300	190	–	CC[C@H]1CN(C(C)c2ccc(C)nc2)[C@H](CC)CN1c1nc(=O)n(C)c2ccc(C#N)nc12 (stereo partly drawn) [Example 228, 4-((2S,5R)-2,5-diethyl-4-(1-(6-methylpyridin-3-yl)ethyl)piperazin-1-yl)-1-methyl-2-oxo-1,2-dihydropyrido[3,2-d]pyrimidine-6-carbonitrile]	600	–
–	–	–	25100	3170	–	CC[C@H]1CN(C(C)c2ccc(CN3CCN(C(C)=O)CC3)cc2)[C@H](CC)CN1c1nc(=O)n(C)c2ccc(C#N)nc12 (stereo partly drawn) [Example 284, 4-((2S,5R)-4-(1-(4-((4-acetylpiperazin-1-yl)methyl)phenyl)ethyl)-2,5-diethylpiperazin-1-yl)-1-methyl-2-oxo-1,2-dihydropyrido[3,2-d]pyrimidine-6-carbonitrile]	13000	–
6070	1930	–	–	–	770	CC(c1ccc(CN2C[C@@H]3C[C@H]2CO3)cc1)N1C[C@H](C)N(c2nc(=O)n(C)c3ccc(C#N)nc23)C[C@H]1C (stereo partly drawn) [Example 387, 4-((2S,5R)-4-(1-(4-(((1S,4S)-2-oxa-5-azabicyclo[2.2.1]heptan-5-yl)methyl)phenyl)ethyl)-2,5-dimethylpiperazin-1-yl)-1-methyl-2-oxo-1,2-dihydropyrido[3,2-d]pyrimidine-6-carbonitrile]	–	–
–	–	–	1770	650	–	CC[C@H]1CN(C(C)c2ccc(C3CC3)nc2)[C@H](CC)CN1c1nc(=O)n(C)c2ccc(C#N)nc12 (stereo partly drawn) [Example 193, 4-((2 S,5R)-4-(1-(6-cyclopropylpyridin-3-yl)ethyl)-2,5-diethylpiperazin-1-yl)-1-methyl-2-oxo-1,2-dihydropyrido[3,2-d]pyrimidine-6-carbonitrile]	1150	–
–	–	–	17000	850	–	CC[C@H]1CN(C(C)c2ccc(OC(C)(C)COC)cc2)[C@H](CC)CN1c1nc(=O)n(C)c2ccc(C#N)nc12 (some centres unmarked) [Example 189]	450	–
–	–	–	140	460	–	CC[C@@H]1CN(c2nc(=O)n(C)c3ccc(C#N)nc23)[C@@H](C)CN1C(c1ccc(F)cc1)c1csc(C(F)(F)F)n1 (stereo partly drawn) [Example 296, 4-((2S,5R)-5-ethyl-4-((4-fluorophenyl)(2-(trifluoromethyl)thiazol-4-yl)methyl)-2-methylpiperazin-1-yl)-1-methyl-2-oxo-1,2-dihydropyrido[3,2-d]pyrimidine-6-carbonitrile]	–	36
–	–	–	420	360	–	CC[C@H]1CN(C(C)c2ccc3oc(=O)n(C)c3c2)[C@H](CC)CN1c1nc(=O)n(C)c2ccc(C#N)nc12 (stereo partly drawn) [Example 202, 4-((2S,5R)-2,5-diethyl-4-(1-(3-methyl-2-oxo-2,3-dihydrobenzo[d]oxazol-5-yl)ethyl)piperazin-1-yl)-1-methyl-2-oxo-1,2-dihydropyrido[3,2-d]pyrimidine-6-carbonitrile]	160	–
–	–	–	2650	1210	–	CC[C@H]1CN(C(C)c2cnc(C(F)(F)F)nc2)[C@H](CC)CN1c1nc(=O)n(C)c2ccc(C#N)nc12 (stereo partly drawn) [Example 226, 4-((2S,5R)-2,5-diethyl-4-(1-(2-(trifluoromethyl)pyrimidin-5-yl)ethyl)piperazin-1-yl)-1-methyl-2-oxo-1,2-dihydropyrido[3,2-d]pyrimidine-6-carbonitrile]	5600	–
–	–	–	130	42	–	CC[C@H]1CN(C(C)c2ccc(N3CCCC3=O)cc2)[C@H](CC)CN1c1nc(=O)n(C)c2ccc(C#N)nc12 (stereo partly drawn) [Example 230, 4-((2S,5R)-2,5-diethyl-4-(1-(4-(2-oxopyrrolidin-1-yl)phenyl)ethyl)piperazin-1-yl)-1-methyl-2-oxo-1,2-dihydropyrido[3,2-d]pyrimidine-6-carbonitrile]	1290	–
–	–	–	–	2860	–	CC[C@H]1CN(C(C)c2ccc(CN3CCC(F)(F)CC3)cc2)[C@H](CC)CN1c1nc(=O)n(C)c2ccc(C#N)nc12 (stereo partly drawn) [Example 278, 4-((2S,5R)-4-(1-(4-((4,4-difluoropiperidin-1-yl)methyl)phenyl)ethyl)-2,5-diethylpiperazin-1-yl)-1-methyl-2-oxo-1,2-dihydropyrido[3,2-d]pyrimidine-6-carbonitrile]	–	1150
